Among the data in patent US9382306B2, “Octapeptide compounds derived from somatostatin and the therapeutic use thereof” (IPSEN PHARMA S.A.S., priority 2008, dated 2016) are solubility, Assembly and Ki values, retold here.

Molecules are shown by their SMILES. Converted amounts (≈) assume the structure as drawn. “And” between values parts separate entries of the source, which are not always exact repeats. Equal values may be shown once. Bridge positions count the residues as written; N and C are the ends. Square brackets hold non-standard residues; d marks the D form. Peptide text beside a SMILES is read from it. ξ: configuration not given here. dPhe(4-F) = N[C@H](Cc1ccc(F)cc1)C(=O)O; d2Nal = N[C@H](Cc1ccc2ccccc2c1)C(=O)O; Thr(3ξ) = CC(O)[C@H](N)C(=O)O

A short description of data set [1]: Solubility study before preparative HPLC. The format is physicochemical. The following applies: water-acetonitrile mixture 58:42; water-acetonitrile solution 58:42. An excerpt: The peptide must be dissolved in a water-acetonitrile mixture in order be injected into the preparative HPLC. A solubility study is first carried out on a small quantity. It allows the optimum percentage of acetonitrile and the maximum quantity of peptide to be established. The lowest possible percentage of acetonitrile with a very high concentration of peptide and a resultant clear solution constitute ideal conditions. By way of example, the solubility of the 4-para-fluorophenylalanine derivative (Example 13 hereafter) was established at 49 g l^−1 in a water-acetonitrile solution 58:42.

Data set [2] is described as follows: Self-assembly study: putting peptides in solution in water, macroscopic, ATR-FTIR, TEM and SAXS analysis. Format: physicochemical. The following applies: 3 to 15% by mass of peptide in water; form and diameter of the self-assembled structure, or soluble / insoluble. An excerpt:
The procedure used comprises three stages: putting the peptides in solution and macroscopic analysis; spectroscopic and microscopic analyses of the structures formed and by small-angle X-ray scattering (SAXS) analyses.
The first stage of the characterization of the derivatives is the production of a range of concentrations from 3 to 15% by mass of peptide in water. Gelling of the solution indicates the presence of self-assembled structures which can be nanotubes but can also be fibres or other self-organised structures.
The object of this stage is to verify the presence of self-assembled structures, to characterize their self-assembly and to visualize them by microscopy.
Infrared spectroscopy makes it possible to obtain information on the method of stacking the peptides in the self-assemblies. The amide band spectrum, reflecting the absorption spectra of the carbonyl functions of the peptide backbone, gives information on the type of hydrogen bond in which these groups are involved (H bonds leading to the formation of the […], a helix or also a loop or random conformation) and consequently on the secondary and tertiary structure of the peptides in solution and self-assembled. The attenuated total reflection technique (ATR-FTIR) uses a crystal on which the solid or liquid sample is deposited. The infrared light is guided through this crystal at an angle which allows it to be reflected several times inside the crystal, which increases the sensitivity of the technique. Due to the performance of this device, it is then possible perform measurements on relatively dilute solutions. The beam penetrates a few microns into the sample deposited on the crystal, which means that only the molecules/structures which are deposited on the surface of the crystal are analyzed. Moreover, this technique is non-destructive.
The assembled structures are then visualized by transmission electron microscopy (TEM). This very powerful technique, allowing magnifications greater than 500,000 times, is one of the few techniques capable of visualizing structures on the nanometric scale. The sample is subjected to an electron beam. The visualization of the transmitted beam is produced either by a photoluminescent screen, or by a CCD camera. The sample in the microscope being under vacuum, it is samples dried after staining with uranyl salts in order to increase contrast which are observed.
The peptide in solution is firstly deposited on a copper grid covered with a film of carbon. After deposition of the materiel, the excess liquid is eliminated. In the same way, the solution of colorant, in our case uranyl acetate, is deposited on the grid, the excess is eliminated and the grid is dried in the open air. It can then be introduced into the microscope.
The samples, liquids or gels, are introduced into a capillary column and subjected to a monochromatic flow of X-rays. The intensity diffused is measured as a function of the scattering angle with respect to the incident angle.
The diffusion patterns thus obtained must be the subject of a correlation with a close theoretical model of the structures present in the sample. In the case where the peptides have self-assembled in the form of hollow nanotubes, the modelling of the experimental data with the theoretical diffusion produced by infinitely long hollow columns makes it possible to determine with precision the diameter of the columns and to estimate their wall thickness (Valery et al. in Biophysical journal, 2004, 86(4), 2484-2501 and Proc. Natl. Acad. Sci., 2003, 100(18) 10258-10262). For polydisperse, nanotubular, fibrilar, micellar or lamellar self-assemblies, it is the correlation of the spectroscopic, microscopic and XR scattering data which makes it possible to estimate a size range for the objects observed.

Data set [3] concerns the target T1, somatostatin receptors sub-type 5 (Homo sapiens, UniProt P35346).
T1 construct: expressed in transfected cells; membrane preparations
The data set is described as follows: Affinity for somatostatin receptors: inhibition of [125I-Tyr11]SRIF-14 binding to membranes of transfected CHO-K1 cells. As to conditions: competitive inhibition of [125I-Tyr11]SRIF-14 binding, 37° C. The method, then: (§1) The affinity of the compounds of the invention for the somatostatin receptors is determined by measurement of the inhibition of the bond of [125I-Tyr11]SRIF-14 to membrane preparations of transfected CHO-K1 cells.
(§2) The CHO-K1 cells expressing in a stable fashion each of the sub-types of somatostatin receptors are collected with 0.5 mM of EDTA and centrifuged at 500 g for 5 minutes at 4° C. The pellet is re-suspended in phosphate buffer (PBS) and centrifuged at 500 g for 5 minutes at 4° C. The pellet is re-suspended in Tris 50 mM buffer at pH 7.4 and centrifuged at 500 g for 5 minutes at 4° C. The cells are lyzed by sonication and centrifuged at 39,000 g for 10 minutes. The pellet is re-suspended in Tris 50 mM buffer at pH 7.4, an aliquot is removed for assaying the proteins and the remainder is centrifuged at 50,000 g for 10 minutes. The membranes obtained in this last pellet are stored at −80° C.
(§3) Measurement of the competitive inhibition of the bond of [125I-Tyr11]SRIF-14 (Perkin Elmer) on each of the sub-types of somatostatin receptors is carried out in duplicate in 96-well polypropylene plates. The cell membranes (5 to 20 µg of proteins/well) are incubated with [125I-Tyr11]SRIF-14 (0.05 to 0.1 nM) for 50 to 90 minutes at 37° C. (conditions dependent on the sub-type of receptor) in a HEPES buffer medium 50 mM pH 7.4, comprising 0.2% bovine serum albumin (BSA), MgCl2 5 mM, Trasylol 200 KIU/mL, Bacitracin 0.02 mg/mL, phenylmethylsulphonyl fluoride 0.02 mg/mL.
(§4) The bound [125I-Tyr11]SRIF-14 is separated from the free [125I-Tyr11]SRIF-14 by filtration through GF/C glass fibre plates (Unifilter, Perkin Elmer) pre-impregnated with 0.1% polyethylenimine (P.E.I.), using a Filtermate 96 (Perkin Elmer). The filters are washed with Tris-HCl buffer 50 mM, pH 7.4 at 4° C. and the radioactivity present is determined using a counter (TopCount, Perkin Elmer).
(§5) The data are analyzed by computer-assisted non-linear regression using XLfit 4.2 (IDBS) software.

In data set [4] the target is T2, somatostatin receptors sub-type 2 (Homo sapiens, UniProt P30874).
T2 construct: expressed in transfected cells; membrane preparations
The description is as above. The following applies: competitive inhibition of [125I-Tyr11]SRIF-14 binding, 37° C. As for the experimental part:
as §1, §2, §3, §4, §5

T1 sequence (P35346 whole entry): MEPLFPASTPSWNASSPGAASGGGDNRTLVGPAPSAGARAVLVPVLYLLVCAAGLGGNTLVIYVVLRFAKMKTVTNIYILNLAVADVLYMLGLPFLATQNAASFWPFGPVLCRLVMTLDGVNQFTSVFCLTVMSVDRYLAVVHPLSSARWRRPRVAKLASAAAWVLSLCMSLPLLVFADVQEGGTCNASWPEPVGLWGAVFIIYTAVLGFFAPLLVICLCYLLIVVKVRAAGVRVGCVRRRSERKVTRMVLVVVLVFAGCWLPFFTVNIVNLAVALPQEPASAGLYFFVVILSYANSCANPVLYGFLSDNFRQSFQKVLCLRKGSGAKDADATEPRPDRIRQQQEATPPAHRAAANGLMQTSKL
T2 sequence (P30874 whole entry): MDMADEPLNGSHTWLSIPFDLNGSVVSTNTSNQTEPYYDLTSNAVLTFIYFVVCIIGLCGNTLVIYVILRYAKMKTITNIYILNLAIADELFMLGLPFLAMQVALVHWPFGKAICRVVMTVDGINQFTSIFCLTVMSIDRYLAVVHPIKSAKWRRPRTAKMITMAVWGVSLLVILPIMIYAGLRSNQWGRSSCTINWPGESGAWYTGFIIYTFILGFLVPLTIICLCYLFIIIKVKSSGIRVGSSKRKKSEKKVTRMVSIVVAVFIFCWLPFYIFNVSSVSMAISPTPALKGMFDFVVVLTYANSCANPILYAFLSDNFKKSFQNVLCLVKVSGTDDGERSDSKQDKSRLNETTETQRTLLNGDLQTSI

The solubility is the concentration that dissolves in the medium under given conditions. Usually Ki stands for a measure of affinity in units of concentration, obtained from inhibition or displacement. The low end stands for a stronger hold on the target, the high end for a looser hold on the target. `CC(C)[C@@H]1NC(=O)[C@H](CCCCN)NC(=O)[C@@H](Cc2ccc(F)cc2)NC(=O)[C@H](Cc2ccc(O)cc2)NC(=O)[C@@H](NC(=O)[C@H](N)Cc2ccc3ccccc3c2)CSSC[C@@H](C(=O)N[C@H](C(N)=O)C(C)O)NC1=O` (stereo partly drawn) [Example 13, H-D-2-Nal^1-cyclo(Cys^2-Tyr^3-p-F-D-Phe^4-Lys^5-Val^6-Cys^7)-Thr^8-NH2.2 CH3COOH] (H-[d2Nal]CY[dPhe(4-F)]KVC[Thr(3ξ)]-NH2; disulfide 2-7): the solubility in data set [1] turned out to be 49 mg/mL (≈ 45.6 mM). In addition, the Assembly result in data set [2] was “monodisperse peptide nanotubes and 17 nm monodisperse nanotube”. Moreover, the Ki in data set [3] is no more than 1000 nM; in data set [4], no more than 5 nM.

For the compound `CC(C)[C@@H]1NC(=O)[C@H](CCCCN)NC(=O)[C@@H](CC2CCCCC2)NC(=O)[C@H](Cc2ccc(O)cc2)NC(=O)[C@@H](NC(=O)[C@H](N)Cc2ccc3ccccc3c2)CSSC[C@@H](C(=O)N[C@H](C(N)=O)[C@@H](C)O)NC1=O` [Example 24, H-D-2-Nal^1-cyclo(Cys^2-Tyr^3-cyclohexyl-D-Ala^4-Lys^5-Val^6-Cys^7)-Thr^8-NH2.2 CH3COOH], the Assembly entry in data set [2] is “fibres”. Moreover, the Ki was no more than 100 nM in data set [3] and no more than 5 nM in data set [4].

`CC(C)[C@@H]1NC(=O)[C@H](CCCCN)NC(=O)[C@@H](Cc2ccc(/N=N/c3ccccc3)cc2)NC(=O)[C@H](Cc2ccc(O)cc2)NC(=O)[C@@H](NC(=O)[C@H](N)Cc2ccc3ccccc3c2)CSSC[C@@H](C(=O)N[C@H](C(N)=O)[C@@H](C)O)NC1=O` [Example 25, H-D-2-Nal^1-cyclo(Cys^2-Tyr^3-p-phenylazo-D-Phe^4-Lys^5-Val^6-Cys^7)-Thr^8-NH2.2 CH3COOH] registered an Assembly in data set [2] of 10 nm monodisperse nanotube. The results for the Ki in data set [3] and in data set [4] were no more than 1000 nM and no more than 50 nM, respectively.
